Reference: US12421225B2, “Heteroaromatic amide derivative and medicament containing the same” (KAKEN PHARMACEUTICAL CO., LTD., priority 2018, dated 2025)

target: human Nav1.7 (Homo sapiens (Human), UniProt Q15858); test: Human Nav1.7 inhibitory activity evaluation (automated patch clamp QPatch16X, HEK293A cells stably expressing human Nav1.7 and human Navβ1); type: cell-based; conditions: HEK293A cells stably expressing human Nav1.7 and human Navβ1, automated patch clamp QPatch16X
Procedure: Test Example 1: Human Nav1.7 Inhibitory Activity Evaluation
A cell line in which human Nav1.7 and human Navβ1 subunits were stably expressed in HEK293A cells was used. Dulbecco's Modified Eagle Medium (DMEM) supplemeted with 10% fetal bovine serum, 600 μg/ml geneticin, and 2 μg/ml blasticidin S were used as culture medium under the conditions of 37° C. and 5% CO2 in T175 flasks to carry out culturing. When 60-80% confluence was reached, the cells were detached and a cell suspension of about 0.5-5.0×10^6 cells/mL was prepared. The amount of current through human Nav1.7 was recorded using a fully automatic patch clamp device QPatch16X (Sophion Biosciences) at room temperature. As the extracellular solution, the solution of 145 mM NaCl, 4 mM KCl, 1 mM MgCl2, 2 mM CaCl2, 10 mM Glucose, 10 mM 4-(2-hydroxyethyl)-1-piperazine ethanesulfonic acid (HEPES) at pH 7.4 was used. As the intracellular solution, the solution of 135 mM CsF, ⅕ mM glycol ether diaminetetraacetic acid (EGTA)/CsOH, 10 mM HEPES, 10 mM NaCl at pH 7.3 was used. The test compounds were dissolved in dimethyl sulfoxide (DMSO) and diluted with the extracellular solution to attain the DMSO concentration of 0.1% at the time of assay.
The current response was obtained at a sampling frequency of 25 kHz, and noise was removed with a 3 kHz low-pass filter. The holding potential was −100 mV. Correction of the leakage current was carried out by applying a step pulse of −120 mV before the test pulse. In order to investigate inhibitory action of the test compound, the following test pulse was given: Namely, after depolarizing pulse of −10 mV was applied for 50 milliseconds, it was fixed at −120 mV for 500 milliseconds; a potential at which about 30-40% of the channel was inactivated was maintained for 15 seconds, then fixed again at −120 mV for 100 milliseconds, and finally a −10 mV depolarization pulse was given for 50 milliseconds. Test pulses were given before and after the test compound addition.
The inhibitory activity of the test compound was determined based on the amount of inward current generated by the second depolarization pulse, and the 50% inhibitory concentration (IC50) was calculated from the concentration-response curve.

Sequence of human Nav1.7 (Q15858 whole entry): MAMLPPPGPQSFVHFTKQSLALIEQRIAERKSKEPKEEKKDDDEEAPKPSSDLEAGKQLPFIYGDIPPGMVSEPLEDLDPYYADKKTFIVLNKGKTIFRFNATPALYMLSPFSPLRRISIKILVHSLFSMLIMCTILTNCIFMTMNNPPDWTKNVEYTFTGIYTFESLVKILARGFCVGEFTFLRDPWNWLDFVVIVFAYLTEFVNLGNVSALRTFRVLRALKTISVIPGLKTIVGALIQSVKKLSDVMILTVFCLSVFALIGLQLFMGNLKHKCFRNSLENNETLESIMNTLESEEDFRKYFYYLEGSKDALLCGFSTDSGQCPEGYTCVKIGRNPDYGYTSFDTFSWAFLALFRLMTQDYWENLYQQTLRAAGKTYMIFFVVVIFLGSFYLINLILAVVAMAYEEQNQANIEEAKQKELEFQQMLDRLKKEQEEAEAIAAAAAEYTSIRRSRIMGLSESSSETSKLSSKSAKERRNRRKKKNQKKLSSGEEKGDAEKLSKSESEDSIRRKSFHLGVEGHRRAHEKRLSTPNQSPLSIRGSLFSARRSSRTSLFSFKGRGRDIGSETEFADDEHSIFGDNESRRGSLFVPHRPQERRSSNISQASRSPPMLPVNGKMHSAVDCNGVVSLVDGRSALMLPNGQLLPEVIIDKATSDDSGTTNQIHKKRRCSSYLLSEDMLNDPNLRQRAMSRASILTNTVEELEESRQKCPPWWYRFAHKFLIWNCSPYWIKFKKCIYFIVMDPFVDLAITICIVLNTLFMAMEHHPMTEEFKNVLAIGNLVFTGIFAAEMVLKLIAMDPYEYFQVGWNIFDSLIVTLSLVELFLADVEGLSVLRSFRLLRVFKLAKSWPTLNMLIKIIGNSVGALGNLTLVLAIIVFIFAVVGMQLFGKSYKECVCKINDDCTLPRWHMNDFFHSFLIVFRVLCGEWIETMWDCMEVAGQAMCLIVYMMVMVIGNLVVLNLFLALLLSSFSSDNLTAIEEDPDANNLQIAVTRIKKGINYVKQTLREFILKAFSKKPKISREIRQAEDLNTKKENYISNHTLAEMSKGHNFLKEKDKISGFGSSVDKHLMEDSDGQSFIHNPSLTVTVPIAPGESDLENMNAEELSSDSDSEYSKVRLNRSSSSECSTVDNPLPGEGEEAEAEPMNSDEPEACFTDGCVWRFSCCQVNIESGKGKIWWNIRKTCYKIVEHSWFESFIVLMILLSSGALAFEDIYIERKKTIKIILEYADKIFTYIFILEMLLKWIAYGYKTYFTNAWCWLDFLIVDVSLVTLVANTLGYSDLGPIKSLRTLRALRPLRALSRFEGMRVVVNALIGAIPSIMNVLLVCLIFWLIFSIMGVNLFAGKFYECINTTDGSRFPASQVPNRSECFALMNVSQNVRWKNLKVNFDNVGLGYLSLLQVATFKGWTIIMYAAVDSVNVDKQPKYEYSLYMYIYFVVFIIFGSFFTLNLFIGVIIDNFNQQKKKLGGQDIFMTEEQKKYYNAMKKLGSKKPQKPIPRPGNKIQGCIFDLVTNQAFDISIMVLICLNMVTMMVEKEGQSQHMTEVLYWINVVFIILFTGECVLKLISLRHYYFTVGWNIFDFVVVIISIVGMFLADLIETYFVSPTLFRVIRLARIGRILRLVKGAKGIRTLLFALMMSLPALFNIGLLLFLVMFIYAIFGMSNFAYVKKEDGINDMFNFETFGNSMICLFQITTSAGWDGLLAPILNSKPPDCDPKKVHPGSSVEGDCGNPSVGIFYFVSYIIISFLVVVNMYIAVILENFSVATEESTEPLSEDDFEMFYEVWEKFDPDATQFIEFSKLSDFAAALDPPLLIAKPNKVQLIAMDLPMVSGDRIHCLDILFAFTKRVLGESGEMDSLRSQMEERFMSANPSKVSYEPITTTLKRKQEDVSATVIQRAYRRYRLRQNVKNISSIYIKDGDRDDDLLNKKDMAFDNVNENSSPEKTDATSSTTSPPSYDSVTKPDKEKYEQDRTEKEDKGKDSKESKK
Sequence of human Nav1.7 (Q07699 19-218 partner): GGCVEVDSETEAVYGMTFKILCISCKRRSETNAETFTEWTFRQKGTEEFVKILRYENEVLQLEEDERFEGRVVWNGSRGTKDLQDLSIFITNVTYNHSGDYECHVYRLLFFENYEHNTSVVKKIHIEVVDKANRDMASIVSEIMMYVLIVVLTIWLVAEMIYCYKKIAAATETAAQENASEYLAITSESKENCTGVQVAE

Row | IC50 | Compound
1 | < 1 µM | N#Cc1ccc2c(c1)C[C@@H](NC(=O)c1cc3n(n1)CCC(CC1CC1)O3)CO2 (single isomer, unassigned) [97 (isomer A)]
2 | < 1 µM | O=C(N[C@H]1COc2ccc(CC(F)F)cc2C1)c1cc2n(n1)CCC(COC(F)F)O2 (single isomer, unassigned) [138 (isomer A)]
3 | < 10 µM | O=C(N[C@H]1COc2ccc(CC(F)F)cc2C1)c1cc2n(n1)CCC(COC(F)F)O2 (single isomer, unassigned) [138 (isomer B)]

same assay, conditions: human Nav1.7, automated patch clamp

Row | Compound | IC50
4 | O=C(N[C@H]1COc2ccc(COCC(F)(F)F)cc2C1)c1cc2n(n1)CC(CC1CCOCC1)O2 (mixture of isomers) [Example 605] | < 1 µM
5 | O=C(N[C@H]1COc2ccc(COCC(F)(F)F)cc2C1)c1cc2n(n1)CCC(CN1CCC(F)(F)C1)O2 (single isomer, unassigned) [154 (isomer A)] | < 10 µM
6 | O=C(N[C@H]1COc2ccc(Cl)cc2C1)c1cc2n(n1)CCC(C(F)F)O2 (single isomer, unassigned) [158 (isomer B)] | < 10 µM
7 | O=C(N[C@H]1COc2ccc(CCOC(F)F)cc2C1)c1cc2n(n1)CCC(C(F)F)O2 (single isomer, unassigned) [165 (isomer A)] | < 1 µM
8 | O=C(N[C@H]1COc2ccc(CCOC(F)F)cc2C1)c1cc2n(n1)CCC(C(F)F)O2 (single isomer, unassigned) [165 (isomer B)] | < 10 µM
9 | O=C(N[C@H]1COc2ccc(COCC(F)(F)F)cc2C1)c1cc2n(n1)CC(C(F)(F)F)O2 (single isomer, unassigned) [184 (isomer B)] | < 10 µM
10 | O=C(N[C@H]1COc2ccc(CC(F)(F)F)cc2C1)c1cc2n(n1)CC(COCC(F)(F)F)O2 (single isomer, unassigned) [192 (isomer B)] | < 1 µM
11 | Cc1cnc(-c2ccc3c(c2)C[C@@H](NC(=O)c2cc4n(n2)CC(COCC(F)(F)F)O4)CO3)cn1 (single isomer, unassigned) [194 (isomer A)] | < 10 µM
12 | Cn1ccc(-c2ccc3c(c2)C[C@@H](NC(=O)c2cc4n(n2)CC(CCOCC(F)(F)F)O4)CO3)n1 (single isomer, unassigned) [206 (isomer A)] | < 1 µM
13 | O=C(N[C@H]1COc2ccc(-c3cnccn3)cc2C1)c1cc2n(n1)CC(CCOC(F)F)O2 (single isomer, unassigned) [223 (isomer A)] | < 10 µM
14 | Cc1ccc2c(c1)C[C@@H](NC(=O)c1cc3n(n1)CC(CCNCC(F)(F)F)O3)CO2 (single isomer, unassigned) [228 (isomer B)] | < 10 µM
15 | O=C(N[C@H]1COc2ccc(C(F)(F)F)cc2C1)c1cc2n(n1)CC(CCNCC(F)(F)F)O2 (single isomer, unassigned) [230 (isomer B)] | < 10 µM
16 | O=C(N[C@H]1COc2ccc(CCOC(F)F)cc2C1)c1cc2n(n1)CC(CCN1CC(F)(F)C1)O2 (single isomer, unassigned) [238 (isomer A)] | < 1 µM
17 | O=C(N[C@H]1COc2ccc(CC(F)(F)F)cc2C1)c1cc2n(n1)CC(CCN1CCC(F)(F)C1)O2 (single isomer, unassigned) [241 (isomer A)] | < 1 µM
18 | O=C(N[C@H]1COc2ccc(C(F)(F)F)cc2C1)c1cc2n(n1)CC(CCN1CCC(F)(F)CC1)O2 (single isomer, unassigned) [242 (isomer A)] | < 1 µM
19 | O=C(N[C@H]1COc2ccc(C(F)(F)F)cc2C1O)c1cc2n(n1)CCC(C(F)F)O2 (single isomer, unassigned) [534 (isomer A)] | < 10 µM
20 | O=C(N[C@H]1COc2ccc(C(F)(F)F)cc2C1O)c1cc2n(n1)CCC(C(F)F)O2 (single isomer, unassigned) [534 (isomer B)] | < 10 µM
21 | O=C(N[C@H]1COc2ccc(C(F)(F)F)cc2C1O)c1cc2n(n1)CC(CCOCC(F)(F)F)O2 (single isomer, unassigned) [600 (isomer A)] | < 10 µM
22 | O=C(N[C@H]1COc2ccc(CC(F)F)cc2C1)c1cc2n(n1)CCC(COCC(F)(F)F)CO2 (single isomer, unassigned) [601 (isomer A)] | < 10 µM
23 | O=C(N[C@H]1COc2ccc(C(F)(F)F)cc2C1O)c1cc2n(n1)CC(CCCOCC(F)(F)F)O2 (single isomer, unassigned) [603 (isomer A)] | < 1 µM
24 | O=C(N[C@H]1COc2ccc(C(F)(F)F)cc2C1O)c1cc2n(n1)CC(CCCOCC(F)F)O2 (single isomer, unassigned) [610 (isomer B)] | < 10 µM
25 | O=C(N[C@H]1COc2ccc(C(F)(F)F)cc2C1O)c1cc2n(n1)CC(CCCOCC(F)(F)F)O2 (single isomer, unassigned) [616 (isomer B)] | < 10 µM
26 | N#Cc1ccc2c(c1)C(F)[C@@H](NC(=O)c1cc3n(n1)CCC(COCC1CC1)O3)CO2 (single isomer, unassigned) [617 (isomer B)] | < 10 µM
27 | O=C(N[C@H]1COc2ccc(C(F)(F)F)cc2C1O)c1cc2n(n1)CC(CCOCC1CC1)O2 (single isomer, unassigned) [636 (isomer A)] | < 1 µM

The next lines start with the values.

Row | IC50 | Compound
28 | < 1 µM | N#Cc1ccc2c(c1)C[C@@H](NC(=O)c1cc3n(n1)CCC(CCOC(F)(F)F)O3)CO2 (single isomer, unassigned) [144 (isomer A)]
29 | < 10 µM | N#Cc1ccc2c(c1)C[C@@H](NC(=O)c1cc3n(n1)CCC(CCOC(F)F)O3)CO2 (single isomer, unassigned) [146 (isomer A)]
30 | < 1 µM | O=C(N[C@H]1COc2ccc(CC(F)F)cc2C1)c1cc2n(n1)CCC(CCOC(F)F)O2 (single isomer, unassigned) [148 (isomer A)]
31 | < 1 µM | O=C(N[C@H]1COc2ccc(COCC(F)(F)F)cc2C1)c1cc2n(n1)CCC(CCOC(F)F)O2 (single isomer, unassigned) [150 (isomer A)]
32 | < 10 µM | N#Cc1ccc2c(c1)C[C@@H](NC(=O)c1cc3n(n1)CCC(CSC(F)(F)F)O3)CO2 (single isomer, unassigned) [156 (isomer B)]
33 | < 10 µM | O=C(N[C@H]1COc2ccc(C(F)(F)F)cc2C1)c1cc2n(n1)CCC(C(F)F)O2 (single isomer, unassigned) [161 (isomer B)]
34 | < 10 µM | O=C(N[C@H]1COc2ccc(COCC(F)(F)F)cc2C1)c1cc2n(n1)CCC(C(F)F)O2 (single isomer, unassigned) [163 (isomer B)]
35 | < 10 µM | O=C(N[C@H]1COc2ccc(CC(F)F)cc2C1)c1cc2n(n1)CCC(C(F)(F)F)O2 (single isomer, unassigned) [173 (isomer B)]
36 | < 10 µM | O=C(N[C@H]1COc2ccc(CC(F)F)cc2C1)c1cc2n(n1)CC(COC(F)(F)F)O2 (single isomer, unassigned) [198 (isomer A)]
37 | < 10 µM | N#Cc1ccc2c(c1)C[C@@H](NC(=O)c1cc3n(n1)CC(CCOC(F)(F)F)O3)CO2 (single isomer, unassigned) [209 (isomer A)]
38 | < 1 µM | O=C(N[C@H]1COc2ccc(CC(F)F)cc2C1)c1cc2n(n1)CC(CCOC(F)(F)F)O2 (single isomer, unassigned) [211 (isomer A)]
39 | < 10 µM | O=C(N[C@H]1COc2ccc(CCOC(F)(F)F)cc2C1)c1cc2n(n1)CC(CCN1CC(F)(F)C1)O2 (single isomer, unassigned) [240 (isomer A)]
40 | < 10 µM | O=C(N[C@H]1COc2ccc(CCOC(F)(F)F)cc2C1)c1cc2n(n1)CC(CCN1CC(F)(F)C1)O2 (single isomer, unassigned) [240 (isomer B)]
41 | < 10 µM | N#Cc1ccc2c(c1)C[C@@H](NC(=O)c1cc3n(n1)CC(CCCOC(F)F)O3)CO2 (single isomer, unassigned) [248 (isomer B)]
42 | < 10 µM | N#Cc1ccc2c(c1)C[C@@H](NC(=O)c1cc3n(n1)CCC(OC(F)(F)F)CO3)CO2 (single isomer, unassigned) [253 (isomer A)]
43 | < 10 µM | N#Cc1ccc2c(c1)C[C@@H](NC(=O)c1cc3n(n1)CCC(OC(F)(F)F)CO3)CO2 (single isomer, unassigned) [253 (isomer B)]
44 | < 10 µM | N#Cc1ccc2c(c1)C[C@@H](NC(=O)c1cc3n(n1)CCC(OCC(F)(F)F)CO3)CO2 (single isomer, unassigned) [255 (isomer A)]
45 | < 10 µM | CC(C)(F)C1CCn2nc(C(=O)N[C@H]3COc4ccc(C#N)cc4C3)cc2O1 (single isomer, unassigned) [547 (isomer B)]
46 | < 10 µM | N#CC1(COCC2CCn3nc(C(=O)N[C@H]4COc5ccc(C(F)(F)F)cc5C4)cc3O2)CC1 (single isomer, unassigned) [554 (isomer B)]
47 | < 10 µM | N#Cc1ccc2c(c1)C[C@@H](NC(=O)c1cc3n(n1)CC(CCCOCC(F)F)O3)CO2 (single isomer, unassigned) [604 (isomer B)]
